Data taken from paper PMC9706563, “Development of Macrocyclic PRMT5–Adaptor Protein Interaction Inhibitors” (Journal of Medicinal Chemistry, 2022).

Each compound was assayed against T1, PRMT5-MEP50 (Homo sapiens, UniProt O14744) (assay: Direct binding fluorescence polarization (FP) assay of FITC-labeled peptides). Conditions: FITC-labeled peptide 1 nM, PRMT5-MEP50 titrated, read-out: KD.
T1 construct: The compounds were tested by means of FP with the full-length PRMT5-MEP50 complex; made in house
T1 sequence (O14744 whole entry): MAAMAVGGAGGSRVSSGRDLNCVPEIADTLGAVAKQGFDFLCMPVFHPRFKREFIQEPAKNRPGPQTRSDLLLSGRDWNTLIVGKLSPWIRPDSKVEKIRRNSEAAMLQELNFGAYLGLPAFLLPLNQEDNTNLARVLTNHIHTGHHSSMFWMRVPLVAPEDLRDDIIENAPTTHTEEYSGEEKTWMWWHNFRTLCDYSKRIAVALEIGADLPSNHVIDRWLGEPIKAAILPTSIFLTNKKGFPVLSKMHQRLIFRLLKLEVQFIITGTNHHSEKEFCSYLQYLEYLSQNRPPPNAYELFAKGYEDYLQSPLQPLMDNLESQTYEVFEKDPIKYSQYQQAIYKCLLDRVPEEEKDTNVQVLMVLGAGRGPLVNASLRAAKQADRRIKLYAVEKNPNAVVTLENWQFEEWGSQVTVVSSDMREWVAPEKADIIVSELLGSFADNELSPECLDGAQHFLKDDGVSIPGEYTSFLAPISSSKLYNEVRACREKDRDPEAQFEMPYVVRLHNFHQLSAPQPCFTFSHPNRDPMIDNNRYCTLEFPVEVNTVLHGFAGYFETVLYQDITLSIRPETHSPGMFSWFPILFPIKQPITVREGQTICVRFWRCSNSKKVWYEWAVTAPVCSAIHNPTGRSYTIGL
T1 sequence (Q9BQA1 whole entry partner): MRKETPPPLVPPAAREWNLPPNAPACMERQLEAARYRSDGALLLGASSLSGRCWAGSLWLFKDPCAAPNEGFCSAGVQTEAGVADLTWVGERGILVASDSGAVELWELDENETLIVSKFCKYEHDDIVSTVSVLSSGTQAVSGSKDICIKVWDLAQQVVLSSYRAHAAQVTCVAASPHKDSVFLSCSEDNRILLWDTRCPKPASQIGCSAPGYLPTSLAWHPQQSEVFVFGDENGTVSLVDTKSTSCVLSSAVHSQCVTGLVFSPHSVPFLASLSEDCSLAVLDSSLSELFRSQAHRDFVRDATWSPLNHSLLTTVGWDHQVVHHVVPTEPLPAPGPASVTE
Protocol: The assay was performed in a buffer of 50 mM 4-(2-hydroxyethyl)-1-piperazineethanesulfonic acid (HEPES), 250 mM NaCl, 1 mM tris(2-carboxyethyl)phosphine (TCEP), and 0.01% (v/v) Tween 20, pH 8.0, in black, 384-well plates with a total volume of 10 μL per well. […] The plates were incubated at room temperature for 1 to 2 h and analyzed on a plate reader using 485 nm excitation and 535 nm emission wavelength. The assay was performed in triplicate.

Row | Compound | Kd
1 | CC(C)[C@H](NC(=O)[C@H](CCCNC(=N)N)NC(=O)[C@H](CO)NC(=O)COCCOCCNC(=S)Nc1ccc2c(c1)C(=O)OC21c2ccc(O)cc2Oc2cc(O)ccc21)C(=O)N[C@H](C(=O)N1CCC[C@H]1C(=O)NC1CC=CC[C@@H](C(=O)N[C@@H](CC(=O)O)C(=O)N[C@@H](C)C(=O)N[C@@H](CC(=O)O)C(N)=O)NC(=O)[C@H](Cc2ccccc2)NC(=O)[C@H](CCC(N)=O)NC1=O)C(C)C (stereo in doubt) [Compound 13] | 719 ± 41 nM
2 | CC(=O)N[C@H](C(=O)N1CCC[C@H]1C(=O)NC1CCCCC[C@@H](C(=O)N[C@@H](CC(=O)O)C(=O)N[C@@H](C)C(=O)N[C@@H](CC(=O)O)C(=O)N[C@@H](CCCCNC(=S)Nc2ccc3c(c2)C(=O)OC32c3ccc(O)cc3Oc3cc(O)ccc32)C(N)=O)NC(=O)[C@H](Cc2ccccc2)NC(=O)[C@H](CCC(N)=O)NC1=O)C(C)C (stereo in doubt) [Compound 21] | 430 ± 96 nM
3 | CC(=O)NC1CCCCC[C@@H](C(=O)N[C@@H](CC(=O)O)C(=O)N[C@@H](C)C(=O)N[C@@H](CC(C(=O)O)C(=O)O)C(=O)N[C@@H](CCCCNC(=S)Nc2ccc3c(c2)C(=O)OC32c3ccc(O)cc3Oc3cc(O)ccc32)C(N)=O)NC(=O)[C@H](Cc2ccc([N+](=O)[O-])cc2)NC(=O)[C@H](CCC(N)=O)NC1=O (stereo in doubt) [Compound 51] | > 2000 nM

Same assay, conditions: supplementary CSV, read-out: PRMT5-MEP50 Kd

Row | Compound | Kd
4 | CC(C)[C@H](NC(=O)[C@H](CCCNC(=N)N)NC(=O)[C@H](CO)NC(=O)COCCOCCNC(=S)Nc1ccc2c(c1)C(=O)OC21c2ccc(O)cc2Oc2cc(O)ccc21)C(=O)N[C@H](C(=O)N1CCC[C@H]1C(=O)N[C@@H]1CC=CC[C@H](C(=O)N[C@@H](CC(=O)O)C(=O)N[C@@H](C)C(=O)N[C@@H](CC(=O)O)C(N)=O)NC(=O)[C@H](Cc2ccccc2)NC(=O)[C@H](CCC(N)=O)NC1=O)C(C)C (single isomer, unassigned) [15 (isomer 1)] | > 2000 nM
5 | CC(=O)N[C@H](C(=O)N1CCC[C@H]1C(=O)N[C@@H]1CC=CCC[C@@H](C(=O)N[C@@H](CC(=O)O)C(=O)N[C@@H](C)C(=O)N[C@@H](CC(=O)O)C(=O)N[C@@H](CCCCNC(=S)Nc2ccc3c(c2)C(=O)OC32c3ccc(O)cc3Oc3cc(O)ccc32)C(N)=O)NC(=O)[C@H](Cc2ccccc2)NC(=O)[C@H](CCC(N)=O)NC1=O)C(C)C (single isomer, unassigned) [18 (isomer 1)] | 352 ± 49 nM
6 | CC(C)[C@H](NC(=O)[C@H](CCCNC(=N)N)NC(=O)[C@H](CO)NC(=O)COCCOCCNC(=S)Nc1ccc2c(c1)C(=O)OC21c2ccc(O)cc2Oc2cc(O)ccc21)C(=O)N[C@H](C(=O)N1CCC[C@H]1C(=O)NC1CNC(=O)C[C@@H](C(=O)N[C@@H](CC(=O)O)C(=O)N[C@@H](C)C(=O)N[C@@H](CC(=O)O)C(N)=O)NC(=O)[C@H](Cc2ccccc2)NC(=O)[C@H](CCC(N)=O)NC1=O)C(C)C (stereo in doubt) [Compound 5] | > 2000 nM
7 | CC(C)[C@H](NC(=O)[C@H](CCCNC(=N)N)NC(=O)[C@H](CO)NC(=O)COCCOCCNC(=S)Nc1ccc2c(c1)C(=O)OC21c2ccc(O)cc2Oc2cc(O)ccc21)C(=O)N[C@H](C(=O)N1CCC[C@H]1C(=O)NC1CNC(=O)CC[C@@H](C(=O)N[C@@H](CC(=O)O)C(=O)N[C@@H](C)C(=O)N[C@@H](CC(=O)O)C(N)=O)NC(=O)[C@H](Cc2ccccc2)NC(=O)[C@H](CCC(N)=O)NC1=O)C(C)C (stereo in doubt) [Compound 6] | > 2000 nM
8 | CC(C)[C@H](NC(=O)[C@H](CCCNC(=N)N)NC(=O)[C@H](CO)NC(=O)COCCOCCNC(=S)Nc1ccc2c(c1)C(=O)OC21c2ccc(O)cc2Oc2cc(O)ccc21)C(=O)N[C@H](C(=O)N1CCC[C@H]1C(=O)NC1CCNC(=O)C[C@@H](C(=O)N[C@@H](CC(=O)O)C(=O)N[C@@H](C)C(=O)N[C@@H](CC(=O)O)C(N)=O)NC(=O)[C@H](Cc2ccccc2)NC(=O)[C@H](CCC(N)=O)NC1=O)C(C)C (stereo in doubt) [Compound 7] | > 2000 nM
9 | CC(C)[C@H](NC(=O)[C@H](CCCNC(=N)N)NC(=O)[C@H](CO)NC(=O)COCCOCCNC(=S)Nc1ccc2c(c1)C(=O)OC21c2ccc(O)cc2Oc2cc(O)ccc21)C(=O)N[C@H](C(=O)N1CCC[C@H]1C(=O)NC1CCNC(=O)CC[C@@H](C(=O)N[C@@H](CC(=O)O)C(=O)N[C@@H](C)C(=O)N[C@@H](CC(=O)O)C(N)=O)NC(=O)[C@H](Cc2ccccc2)NC(=O)[C@H](CCC(N)=O)NC1=O)C(C)C (stereo in doubt) [Compound 8] | > 2000 nM
10 | CC(=O)N[C@H](C(=O)N1CCC[C@H]1C(=O)NC1CC=CC[C@@H](C(=O)N[C@@H](CC(=O)O)C(=O)N[C@@H](C)C(=O)N[C@@H](CC(=O)O)C(=O)N[C@@H](CCCCNC(=S)Nc2ccc3c(c2)C(=O)OC32c3ccc(O)cc3Oc3cc(O)ccc32)C(N)=O)NC(=O)[C@H](Cc2ccccc2)NC(=O)[C@H](CCC(N)=O)NC1=O)C(C)C (stereo in doubt) [Compound 17] | 452 ± 1 nM
11 | CC(=O)N[C@H](C(=O)N1CCC[C@H]1C(=O)NC1CCC=CCC[C@@H](C(=O)N[C@@H](CC(=O)O)C(=O)N[C@@H](C)C(=O)N[C@@H](CC(=O)O)C(=O)N[C@@H](CCCCNC(=S)Nc2ccc3c(c2)C(=O)OC32c3ccc(O)cc3Oc3cc(O)ccc32)C(N)=O)NC(=O)[C@H](Cc2ccccc2)NC(=O)[C@H](CCC(N)=O)NC1=O)C(C)C (stereo in doubt) [Compound 20] | > 2000 nM
12 | CC(=O)N1CCC[C@H]1C(=O)N[C@H](C(=O)NC1CCCCC[C@@H](C(=O)N[C@@H](Cc2ccc([N+](=O)[O-])cc2)C(=O)N[C@@H](CC(C(=O)O)C(=O)O)C(=O)N[C@@H](CCC(N)=O)C(=O)N[C@@H](CCCCNC(=S)Nc2ccc3c(c2)C(=O)OC32c3ccc(O)cc3Oc3cc(O)ccc32)C(N)=O)NC(=O)[C@H](CC(=O)O)NC(=O)[C@H](C)NC1=O)C(C)C (stereo in doubt) [Compound 52] | > 2000 nM
13 | CC(C)[C@H](NC(=O)[C@H](CCCNC(=N)N)NC(=O)[C@H](CO)NC(=O)COCCOCCNC(=S)Nc1ccc2c(c1)C(=O)OC21c2ccc(O)cc2Oc2cc(O)ccc21)C(=O)N[C@H](C(=O)N1CCC[C@H]1C(=O)N[C@@H]1CNC(=O)C[C@H](C(=O)N[C@@H](CC(=O)O)C(=O)N[C@@H](C)C(=O)N[C@@H](CC(=O)O)C(N)=O)NC(=O)[C@H](Cc2ccccc2)NC(=O)[C@H](CCC(N)=O)NC1=O)C(C)C [Compound 9] | > 2000 nM
14 | CC(C)[C@H](NC(=O)[C@H](CCCNC(=N)N)NC(=O)[C@H](CO)NC(=O)COCCOCCNC(=S)Nc1ccc2c(c1)C(=O)OC21c2ccc(O)cc2Oc2cc(O)ccc21)C(=O)N[C@H](C(=O)N1CCC[C@H]1C(=O)N[C@@H]1CNC(=O)CC[C@H](C(=O)N[C@@H](CC(=O)O)C(=O)N[C@@H](C)C(=O)N[C@@H](CC(=O)O)C(N)=O)NC(=O)[C@H](Cc2ccccc2)NC(=O)[C@H](CCC(N)=O)NC1=O)C(C)C [Compound 10] | > 2000 nM
15 | CC(C)[C@H](NC(=O)[C@H](CCCNC(=N)N)NC(=O)[C@H](CO)NC(=O)COCCOCCNC(=S)Nc1ccc2c(c1)C(=O)OC21c2ccc(O)cc2Oc2cc(O)ccc21)C(=O)N[C@H](C(=O)N1CCC[C@H]1C(=O)N[C@@H]1CCNC(=O)C[C@H](C(=O)N[C@@H](CC(=O)O)C(=O)N[C@@H](C)C(=O)N[C@@H](CC(=O)O)C(N)=O)NC(=O)[C@H](Cc2ccccc2)NC(=O)[C@H](CCC(N)=O)NC1=O)C(C)C [Compound 11] | > 2000 nM
